Results taken from article PMC6691788, “Design and synthesis of phthalazine-based compounds as potent anticancer agents with potential antiangiogenic activity via VEGFR-2 inhibition” (Journal of Enzyme Inhibition and Medicinal Chemistry, 2019).

Legend:
Experiment in all cases: NCI 60 cell panel SRB screen
CCRF-CEM = format: cell-based, human; conditions: for GI50 / CC50 / activity at 10 µM: Homo sapiens; for CC50: 48 h, read-out: LC50 (the source's name); for activity at 10 µM: single dose 10 μM, read-out: percent cell growth promotion
NCI-H460 = format: cell-based; conditions: Homo sapiens; for GI50 / IC (TGI) / LC50 (concentration causing 50% cell kill): NCI-H460, 5 log dose; for LC50 (concentration causing 50% cell kill): 48 h; for activity at 10 µM: NCI-H460, single dose 10 μM, read-out: percent cell growth promotion
HCT-116 = format: cell-based; conditions: Homo sapiens; for GI50 / IC (TGI) / LC50 (lethal concentration 50%): HCT-116, 5 log dose; for LC50 (lethal concentration 50%): 48 h; for activity at 10 µM: HCT-116, single dose 10 μM, read-out: percent cell growth promotion
HT29 = format: cell-based; conditions: Homo sapiens, HT-29; for GI50 / IC (TGI) / CC50: HT29, 5 log dose; for CC50: 48 h, read-out: LC50 (the source's name); for activity at 10 µM: HT29, single dose 10 μM, read-out: percent cell growth promotion
KM12 = format: cell-based; conditions: Homo sapiens; for GI50 / IC (TGI) / CC50: KM12, 5 log dose; for CC50: 48 h, read-out: LC50 (the source's name); for activity at 10 µM: KM12, single dose 10 μM, read-out: percent cell growth promotion
SNB-75 = format: cell-based; conditions: Homo sapiens; for GI50 / IC (TGI) / LC50 (concentration killing 50% of cells): SNB-75, 5 log dose; for LC50 (concentration killing 50% of cells): 48 h; for activity at 10 µM: SNB-75, single dose 10 μM, read-out: percent cell growth promotion
LOX IMVI = format: cell-based; conditions: Homo sapiens; for CC50: 5 log dose, 48 h, read-out: LC50 (the source's name); for IC (TGI): read-out: TGI; for activity at 10 µM: read-out: percent cell growth promotion
SK-MEL-5 = format: cell-based; conditions: Homo sapiens; for GI50: SK-MEL-5; for IC (TGI): SK-MEL-5, read-out: TGI; for activity at 10 µM: SK-MEL-5, read-out: percent cell growth promotion; for CC50: SK-MEL-5, 5 log dose, 48 h, read-out: LC50 (the source's name)
UACC-62 = format: cell-based; conditions: for GI50 / activity at 10 µM / CC50: Homo sapiens; for GI50: UACC-62; for activity at 10 µM: UACC-62, read-out: percent cell growth promotion; for CC50 / TGI: UACC-62, 5 log dose; for CC50: 48 h, read-out: LC50 (the source's name)
IGROV1 = format: cell-based; conditions: Homo sapiens, IGROV-1; for GI50 / IC (TGI) / CC50: IGROV1, 5 log dose; for CC50: 48 h, read-out: LC50 (the source's name); for activity at 10 µM: IGROV1, single dose 10 μM, read-out: percent cell growth promotion
OVCAR-3 = format: cell-based; conditions: Homo sapiens; for GI50 / IC (TGI) / CC50: OVCAR-3, 5 log dose; for CC50: 48 h, read-out: LC50 (the source's name); for activity at 10 µM: OVCAR-3, single dose 10 μM, read-out: percent cell growth promotion
OVCAR-4 = format: cell-based; conditions: Homo sapiens; for GI50 / IC (TGI) / CC50: OVCAR-4, 5 log dose; for CC50: 48 h, read-out: LC50 (the source's name); for activity at 10 µM: OVCAR-4, single dose 10 μM, read-out: percent cell growth promotion
OVCAR-5 = format: cell-based; conditions: Homo sapiens; for GI50 / IC (TGI) / CC50: OVCAR-5, 5 log dose; for CC50: 48 h, read-out: LC50 (the source's name); for activity at 10 µM: OVCAR-5, single dose 10 μM, read-out: percent cell growth promotion
TK-10 = format: cell-based, human; conditions: for activity at 10 µM: TK-10, single dose 10 μM, read-out: percent cell growth promotion
MDA-MB 231/ATCC = format: cell-based; conditions: Homo sapiens; for GI50 / CC50: MDA-MB-231; for IC (TGI): MDA-MB-231, read-out: TGI; for activity at 10 µM: MDA-MB-231, read-out: percent cell growth promotion; for CC50: MDA-MDA 231/ATCC, 5 log dose, 48 h, read-out: LC50 (the source's name)
HS 578T = format: cell-based; conditions: Homo sapiens; for GI50 / IC (TGI) / activity at 10 µM: Hs-578T; for IC (TGI): read-out: TGI; for activity at 10 µM: read-out: percent cell growth promotion; for CC50: HS 578T, 5 log dose, 48 h, read-out: LC50 (the source's name)
T-47D = format: cell-based; conditions: Homo sapiens, T47D; for IC (TGI): read-out: TGI; for activity at 10 µM: read-out: percent cell growth promotion; for CC50: T-47D, 5 log dose, 48 h, read-out: LC50 (the source's name)
MDA-MB-468 = format: cell-based; conditions: Homo sapiens; for activity at 10 µM: MDA-MB-468, MDA-MBA-468, single dose 10 μM, read-out: percent cell growth promotion; for GI50 / IC (TGI) / CC50: MDA-MB-468, 5 log dose; for CC50: 48 h, read-out: LC50 (the source's name)
Outline: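 Cells in RPMI 1640 with 5% FBS, preincubated 24 h, then exposed to five concentrations for 48 h at 37 °C. TCA fixation, SRB staining, absorbance at 515 nm; a time-zero plate allows GI50 (50% reduction in net protein gain), TGI and LC50 (50% loss versus start).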

O=C(Nc1ccc(Cl)cc1)Nc1ccc(Oc2nncc3ccccc23)cc1 [Compound 7b, 1–(4-Chlorophenyl)-3–(4-(phthalazin-1-yloxy)phenyl)urea]
GI50 (CCRF-CEM; 5 log dose): 0.32 µM
CC50 (CCRF-CEM; 5 log dose): > 100 µM
activity at 10 µM (CCRF-CEM): 8.7%
GI50 (NCI-H460): 2.79 µM
IC (TGI) (NCI-H460): 8.32 µM
LC50 (concentration causing 50% cell kill) (NCI-H460): 45.5 µM
activity at 10 µM (NCI-H460): 21.5%
GI50 (HCT-116): 0.32 µM
IC (TGI) (HCT-116): 1.2 µM
LC50 (lethal concentration 50%) (HCT-116): 4.65 µM
activity at 10 µM (HCT-116): -56.9%
GI50 (HT29): 0.46 µM
IC (TGI) (HT29): 2.39 µM
CC50 (HT29): > 100 µM
activity at 10 µM (HT29): 0.52%
GI50 (KM12): 0.88 µM
IC (TGI) (KM12): 2.65 µM
CC50 (KM12): 7.38 µM
activity at 10 µM (KM12): -32.3%
GI50 (SNB-75): 0.45 µM
IC (TGI) (SNB-75): 1.95 µM
LC50 (concentration killing 50% of cells) (SNB-75): 5.2 µM
activity at 10 µM (SNB-75): -3.13%
GI50 (LOX IMVI): 0.16 µM
CC50 (LOX IMVI): 1.63 µM
IC (TGI) (LOX IMVI): 0.45 µM
activity at 10 µM (LOX IMVI): -77.3%
GI50 (SK-MEL-5): 1.02 µM
IC (TGI) (SK-MEL-5): 2.81 µM
activity at 10 µM (SK-MEL-5): -43.3%
CC50 (SK-MEL-5): 6.56 µM
GI50 (UACC-62): 1.08 µM
activity at 10 µM (UACC-62): -14.3%
CC50 (UACC-62): 14 µM
TGI (UACC-62): 3.46 µM
GI50 (IGROV1): 1.16 µM
IC (TGI) (IGROV1): 5 µM
CC50 (IGROV1): > 100 µM
activity at 10 µM (IGROV1): 8.16%
GI50 (OVCAR-3): 0.35 µM
IC (TGI) (OVCAR-3): 1.15 µM
CC50 (OVCAR-3): 3.95 µM
activity at 10 µM (OVCAR-3): -62.8%
GI50 (OVCAR-4): 0.75 µM
IC (TGI) (OVCAR-4): 3.49 µM
CC50 (OVCAR-4): 17 µM
activity at 10 µM (OVCAR-4): -20.8%
GI50 (OVCAR-5): 1.89 µM
IC (TGI) (OVCAR-5): 4.47 µM
CC50 (OVCAR-5): 12.6 µM
activity at 10 µM (OVCAR-5): -16%
GI50 (TK-10; Homo sapiens, TK-10, 5 log dose): 2.12 µM
CC50 (TK-10; Homo sapiens, TK-10, 5 log dose, 48 h, read-out: LC50 (the source's name)): 8.64 µM
activity at 10 µM (TK-10; Homo sapiens): 27.5%
TGI (TK-10; TK-10, 5 log dose): 4.28 µM
GI50 (MDA-MB 231/ATCC): 0.39 µM
IC (TGI) (MDA-MB 231/ATCC): 3.68 µM
activity at 10 µM (MDA-MB 231/ATCC): -25.2%
CC50 (MDA-MB 231/ATCC): 42.4 µM
GI50 (HS 578T): 0.69 µM
IC (TGI) (HS 578T): 47 µM
activity at 10 µM (HS 578T): 37.5%
CC50 (HS 578T): > 100 µM
GI50 (T-47D): 0.24 µM
IC (TGI) (T-47D): 7.68 µM
activity at 10 µM (T-47D): 10.2%
CC50 (T-47D): > 100 µM
activity at 10 µM (MDA-MB-468): -76.2%
GI50 (MDA-MB-468): 0.75 µM
IC (TGI) (MDA-MB-468): 2.52 µM
CC50 (MDA-MB-468): 7.18 µM

Clc1ccc(Nc2nnc(CNc3ccccc3)c3ccccc23)cc1 [Compound 16a, N-(4-Chlorophenyl)-4-((phenylamino)methyl)phthalazin-1-amine]
TGI (CCRF-CEM; 5 log dose): 17.6 µM
GI50 (CCRF-CEM; 5 log dose): 3.53 µM
CC50 (CCRF-CEM; 5 log dose): > 25 µM
activity at 10 µM (CCRF-CEM): 12.4%
GI50 (NCI-H460): 3.21 µM
IC (TGI) (NCI-H460): 9.98 µM
LC50 (concentration causing 50% cell kill) (NCI-H460): > 25 µM
activity at 10 µM (NCI-H460): 17.6%
GI50 (HCT-116): 1.2 µM
IC (TGI) (HCT-116): 5.02 µM
LC50 (lethal concentration 50%) (HCT-116): 13.3 µM
activity at 10 µM (HCT-116): 9.94%
GI50 (HT29): 1.46 µM
IC (TGI) (HT29): 6.36 µM
CC50 (HT29): 21.2 µM
activity at 10 µM (HT29): 0.55%
GI50 (KM12): 3.05 µM
IC (TGI) (KM12): 9.91 µM
CC50 (KM12): > 25 µM
activity at 10 µM (KM12): 8.93%
GI50 (SNB-75): 0.87 µM
IC (TGI) (SNB-75): 7.05 µM
LC50 (concentration killing 50% of cells) (SNB-75): > 25 µM
activity at 10 µM (SNB-75): 19.6%
GI50 (LOX IMVI): 1.57 µM
CC50 (LOX IMVI): 11.4 µM
IC (TGI) (LOX IMVI): 4.97 µM
activity at 10 µM (LOX IMVI): 12.1%
GI50 (SK-MEL-5): 2.08 µM
IC (TGI) (SK-MEL-5): 5.27 µM
activity at 10 µM (SK-MEL-5): -69.1%
CC50 (SK-MEL-5): 11.8 µM
GI50 (UACC-62): 1.25 µM
activity at 10 µM (UACC-62): 8.47%
CC50 (UACC-62): 19 µM
TGI (UACC-62): 5.70 µM
GI50 (IGROV1): 1.93 µM
IC (TGI) (IGROV1): 10.7 µM
CC50 (IGROV1): > 25 µM
activity at 10 µM (IGROV1): 19.1%
GI50 (OVCAR-3): 3.51 µM
IC (TGI) (OVCAR-3): 8.69 µM
CC50 (OVCAR-3): 21.5 µM
activity at 10 µM (OVCAR-3): -1.64%
GI50 (OVCAR-4): 3 µM
IC (TGI) (OVCAR-4): > 25 µM
CC50 (OVCAR-4): > 25 µM
activity at 10 µM (OVCAR-4): 19.3%
GI50 (OVCAR-5): 4.92 µM
IC (TGI) (OVCAR-5): > 25 µM
CC50 (OVCAR-5): > 25 µM
activity at 10 µM (OVCAR-5): 41.5%
activity at 10 µM (TK-10; Homo sapiens): -0.69%
GI50 (MDA-MB 231/ATCC): 1.95 µM
IC (TGI) (MDA-MB 231/ATCC): 8.73 µM
activity at 10 µM (MDA-MB 231/ATCC): 19.9%
CC50 (MDA-MB 231/ATCC): > 25 µM
GI50 (HS 578T): 2.95 µM
IC (TGI) (HS 578T): 12.9 µM
activity at 10 µM (HS 578T): 26.6%
CC50 (HS 578T): > 25 µM
GI50 (T-47D): 1.17 µM
IC (TGI) (T-47D): 8.28 µM
activity at 10 µM (T-47D): 2.82%
CC50 (T-47D): > 25 µM
activity at 10 µM (MDA-MB-468): -16.4%
GI50 (MDA-MB-468): 1.9 µM
IC (TGI) (MDA-MB-468): 11.5 µM
CC50 (MDA-MB-468): > 25 µM
